Patent publication US12479866B2, “Boron-containing rho kinase inhibitors” (Percipiad, Inc., priority 2019, dated 2025)

How the values were obtained:
primary hTM cells = test: CellTox Green cytotoxicity assay in hTM cells; format: cell-based; settings: 24 h, 48 h, 72 h
Description: Commercially available RealTime-Glo™ MT cell viability (Promega, catalog #G9712) and CellTox™ Green cytotoxicity (Promega, catalog #G8731) assays were used in assessing effect of compounds on primary hTM cell viability and cytotoxicity. The RealTime-Glo™ MT cell viability assay is a nonlytic, homogeneous, bioluminescent method that determines the number of viable cells in culture by measuring the reducing potential of cells and thus metabolism (MT). Viable cells reduce the proprietary pro-substrate to generate a substrate for NanoLuc® luciferase. This substrate diffuses from cells into the surrounding culture medium, where it is rapidly used by the NanoLuc® Enzyme to produce a luminescent signal. In a contrasting and complementary manner, CellTox™ Green cytotoxicity assay measures changes in membrane integrity that occur as a result of cell death. This assay system uses a proprietary asymmetric cyanine dye that is excluded from viable cells but preferentially stains the dead cells' DNA. […]
Human™ cells were cultured and maintained as described in Example 12. […] Light emitted by luciferase and fluorescence emitted by dye binding to DNA (excitation 485 nm and emission 525 nm) were measured at 24 h, 48 h, and 72 h after incubation using plate based luminescence and fluorescence plate readers.

[1] = test system: New Zealand White rabbits; test: Phenol-induced chronic model of glaucoma, IOP; format: in vivo, rabbit
Description: For these efficacy studies methods were followed as described in (Jacob et al, A promising drug candidate for the treatment of glaucoma based on a P2Y6-receptor agonist, Purinergic Signal. 2018 September; 14 (3): 271-284). In all studies, male New Zealand White rabbits were acclimatized for one week before the study. Animals were given food and water ad libitum. Body weights of rabbits ranged from 2 to 3 kg. Animals were trained for the IOP measurement procedure during the acclimation period in order to reduce stress and obtaining more accurate measurements during the study. IOP measurements were taken using the Icare® TONOVET Plus tonometer. […] The technique of use of the […] tonometer in rabbits was described previously (Gloe et al, Validation of the Icare® TONOVET Plus Rebound Tonometer in Normal Rabbit Eyes, Exp Eye Res. 2019 August; 185:107698). IOP readings are obtained only when the tonometer is held an appropriate distance and in the correct plane relative to the ocular surface. Green light appears when the orientation is correct, thereby minimizing operator errors. […] IOP was measured daily after phenol injection and IOP doubled in 8 days after phenol injection. […] IOP readings were taken on mornings of days 8 to 12 before compound application and 0.5 and 1 hour after morning application. […]

[2] = test system: New Zealand White rabbits; test: Sodium hyaluronate-induced acute ocular hypertension, IOP; format: in vivo, rabbit
Description: In all studies, male New Zealand White rabbits were acclimatized for one week before the study. Animals were given food and water ad libitum. Body weights of rabbits ranged from 2 to 3 kg. Animals were trained for the IOP measurement procedure during the acclimation period in order to reduce stress and obtaining more accurate measurements during the study. IOP measurements were taken using the Icare® TONOVET Plus tonometer. […] IOP readings are obtained only when the tonometer is held an appropriate distance and in the correct plane relative to the ocular surface. Green light appears when the orientation is correct, thereby minimizing operator errors. Measurements were performed at the same time of day by the same person using the same instrument. Sodium hyaluronate-induced acute ocular hypertension study. Sodium hyaluronate injection into the anterior chamber of rabbit eye creates acute ocular hypertensive status. […] Another group of four animals with elevated IOP received saline only in right eyes. The left eyes of both groups were instilled topically with 30 μl saline eye drop.

[3] = Stability in liver microsomes (LC-MS/MS); format: in vitro ADME; settings: Human liver microsomes; for % Remaining of Initial (n = 1): 1 μM
Description: Stability in liver microsomes. Experiment was conducted by Absorption Systems. Mixed-gender human liver microsomes (Lot #1210347) were purchased from XenoTech. The reaction mixture, minus NADPH, was prepared (Liver Microsomes 0.5 mg/mL, NADPH (cofactor) 1 mM, potassium phosphate, pH 7.4, 100 mM, MgCl2, 5 mM). The test article was added into the reaction mixture at a final concentration of 1 μM. The control compound, testosterone, was run simultaneously with the test article in a separate reaction. The reaction mixture (without cofactor) was equilibrated in a shaking water bath at 37° C. for 3 minutes. The reaction was initiated by the addition of the cofactor, and the mixture was incubated in a shaking water bath at 37° C. Aliquots (100 μL) were withdrawn at 0, 10, 20, 30, and 60 minutes. Test article and testosterone samples were immediately combined with 400 μL of ice-cold 50/50 acetonitrile (ACN)/H2O containing 0.1% formic acid and internal standard to terminate the reaction. The samples were then mixed and centrifuged to precipitate proteins. […] The peak area response ratio (PARR) to internal standard was compared to the PARR at time 0 to determine the percent remaining at each time point. Half-lives and clearance were calculated using GraphPad software, fitting to a single-phase exponential decay equation.

[4] = test system: New Zealand White rabbits; settings: 0.1 ml, 20 mg/ml in saline
Description: The right eye that was not treated served as the control. […] The eyes of initial and confirmatory test animals were examined with slit lamp for ocular lesions. […] The animals were also observed for clinical signs of toxicity, morbidity and mortality.

## Cl.Cl.NCC(C(=O)Nc1ccc2cnccc2c1)c1ccc(B(O)O)cc1 (centres unmarked) [Compound 10•2HCl]
Primary hTM cells
  Cytotoxicity / membrane integrity (in words): no effect on viability or membrane integrity
[1]; 1 mg/ml (2.34 mM) in saline, day 8 after phenol injection
  Effect on IOP after first application: decrease of IOP to normal levels within 1 hour after application
[1]; 1 mg/ml twice daily, days 8 to 12
  Effect of subsequent twice daily application on IOP: maintained normal IOP
[2]; experiment 1, 1 mg/ml eye drop
  Duration of IOP effect: 6 h
[2]; experiment 1, 30 μl eye drop in saline (1 mg/ml, 2.34 mM) two hours after hyaluronate injection
  Effect on IOP compared to saline only group: decreased IOP significantly within 1 hour after application
[2]; experiment 2, compound 10.2HCl 1 mg/ml (2.34 mM), Netarsudil.2HCl 0.25 mg/ml (0.47 mM), 30 μL eye drop
  Effect on IOP: reduced IOP significantly within 1 hour after eye drop application
[3]; 0 min
  % Remaining of Initial (n = 1): 100%
[3]; 10 min
  % Remaining of Initial (n = 1): 98.0%
[3]; 20 min
  % Remaining of Initial (n = 1): 91.5%
[3]; 30 min
  % Remaining of Initial (n = 1): 89.6%
[3]; 60 min
  % Remaining of Initial (n = 1): 80.8%
[3]; both sexes, pH 7.4
  half-life at 1 μM: > 1 h
  microsomal CLint at 1 μM: < 23.1 µL/min/mg
[4]
  clinical signs of toxicity, morbidity and mortality: No treatment-related adverse effects were noticed
